Key:
Assay in all cases: greenhouse post-emergence herbicidal test
Assay type in all cases: in vivo
Settings in all cases: application rate 2 kg/ha, post-emergence method; scale 0 to 100 (100 = complete destruction)
Abutilon theophrasti = tested on: Abutilon theophrasti
Source text: (§1) The seeds of the test plants were sown separately for each species. For the post-emergence treatment, the test plants were first grown to a height of 3 to 8 cm, depending on the plant habit, and only then treated with the active ingredients which had been suspended or emulsified in water. For this purpose, the test plants were either sown directly and grown in the same containers, or they were first grown separately as seedlings and transplanted into the test containers a few days prior to treatment. Depending on the species, the plants were kept at 10-25° C. or 20-35° C., respectively. The test period extended over 2 to 4 weeks. During this time, the plants were tended, and their response to the individual treatments was evaluated. Evaluation was carried out using a scale from 0 to 100. 100 means no emergence of the plants, or complete destruction of at least the aerial moieties, and 0 means no damage, or normal course of growth. A moderate herbicidal activity is given at values of at least 60, a good herbicidal activity is given at values of at least 70, and a very good herbicidal activity is given at values of at least 85. The plants used in the greenhouse experiments were of the following species: [table]

Amaranthus retroflexus = tested on: Amaranthus retroflexus
Source text: as §1

Avena fatua = tested on: Avena fatua
Source text: as §1

Echinocloa crus-galli = tested on: Echinocloa crus-galli
Source text: as §1

Setaria viridis = tested on: Setaria viridis
Source text: as §1

Alopecurus myosuroides = tested on: Alopecurus myosuroides
Source text: as §1

Compound | herbicidal activity against Abutilon theophrasti (Abutilon theophrasti) [%] | herbicidal activity against Amaranthus retroflexus (Amaranthus retroflexus) [%] | herbicidal activity against Avena fatua (Avena fatua) [%] | herbicidal activity against Echinocloa crus-galli (Echinocloa crus-galli) [%] | herbicidal activity against Setaria viridis (Setaria viridis) [%] | herbicidal activity against Alopecurus myosuroides (Alopecurus myosuroides) [%]
O=C(O)COc1ccc2c(c1)B(O)OC2 [I-1] | 90 | 100 | 90 | 100 | 100 | –
CCOC(=O)C(C)(C)Oc1ccc2c(c1)B(O)OC2 [I-2] | – | 100 | – | – | – | –
COC(=O)COc1ccc2c(c1)B(O)OC2 [I-3] | 100 | 100 | 90 | 98 | 100 | –
CC(C)(Oc1ccc2c(c1)B(O)OC2)C(=O)O [I-4] | 85 | – | – | 85 | – | –
COC(=O)COc1cc2c(cc1F)COB2O [I-5] | 100 | 100 | 98 | 98 | 98 | 98
O=C(O)COc1cc2c(cc1F)COB2O [I-6] | 100 | 100 | 98 | 98 | 100 | 90
COC(=O)COc1cc2c(cc1Cl)COB2O [I-7] | 100 | 100 | 98 | 100 | 100 | 95
O=C(O)COc1cc2c(cc1Cl)COB2O [I-8] | 100 | 100 | 98 | 100 | 95 | 98
COC(=O)C(Oc1cc2c(cc1F)COB2O)C(=O)OC [I-10] | – | 90 | – | – | 95 | –
O=C(O)COc1c(Cl)cc2c(c1Cl)B(O)OC2 [I-15] | – | 100 | – | 85 | 90 | –
O=C(O)CSc1cc2c(cc1F)COB2O [I-22] | 100 | 100 | – | – | 100 | –
O=C(O)COc1c(F)cc2c(c1F)B(O)OC2 [I-24] | 100 | 100 | – | – | 95 | –
O=C(O)CCCOc1cc2c(cc1F)COB2O [I-25] | – | 95 | – | – | 95 | –
CCOC(=O)C(F)Oc1ccc2c(c1)B(O)OC2 (stereo not shown) [I-26] | 90 | 100 | – | – | 85 | –
COC(=O)CSc1cc2c(cc1F)COB2O [I-28] | 100 | 100 | – | – | 100 | –
COC(=O)COc1c(F)cc2c(c1F)B(O)OC2 [I-29] | – | 100 | – | 95 | 100 | –
CC(Oc1c(F)cc2c(c1F)B(O)OC2)C(=O)O (stereo not shown) [I-30] | 95 | 100 | – | – | – | 85
O=C(O)COc1c(F)c(F)c2c(c1F)B(O)OC2 [I-33] | 98 | 100 | – | – | 98 | –
COC(=O)C(C)Oc1c(F)cc2c(c1F)B(O)OC2 (stereo not shown) [I-35] | 100 | 100 | – | – | 98 | –
O=C(O)CS(=O)(=O)c1cc2c(cc1F)COB2O [I-37] | – | 100 | – | – | – | –
COC(=O)COc1c(F)c(F)c2c(c1F)B(O)OC2 [I-39] | – | 100 | – | – | 100 | –
COC(=O)CS(=O)(=O)c1cc2c(cc1F)COB2O [I-42] | 100 | 100 | – | – | – | –
